Article PMC10174618, “Monoterpenoid aryl hydrocarbon receptor allosteric antagonists protect against ultraviolet skin damage in female mice” (Nature Communications, 2023)

How the values were obtained:
Experiment in all cases: biochemical
Design in all cases: KINOMEscan scanMAX active site-directed competition binding assay, percent of control, 468 kinases
Conditions in all cases: competition binding, percent of control
TLK2 = TLK2 (Homo sapiens, UniProt Q86UE8)
How it was run: (§1)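 Single-concentration screen (100 μM S-carvone) in a competition binding panel of 468 human kinases (KINOMEscan scanMAX); results given as percent of control, hit cutoff 35%.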

PCTK3 = target: T1, PCTK3 (Homo sapiens, UniProt Q07002)
T1 construct: gene CDK18
How it was run: as §1

[1] = target: T2, JAK1(JH2domain-pseudokinase) (Homo sapiens, UniProt P23458)
T2 construct: JH2domain-pseudokinase
How it was run: as §1

TAK1 = target: T3, TAK1 (Homo sapiens, UniProt O43318)
T3 construct: gene MAP3K7
How it was run: as §1

DYRK2 = DYRK2 (Homo sapiens, UniProt Q92630)
How it was run: as §1

BRSK2 = BRSK2 (Homo sapiens, UniProt Q8IWQ3)
How it was run: as §1

[2] = target: T4, RSK3(Kin.Dom.2-C-terminal) (Homo sapiens, UniProt Q15349)
T4 construct: gene RPS6KA2; Kin.Dom.2-C-terminal
How it was run: as §1

NEK7 = NEK7 (Homo sapiens, UniProt Q8TDX7)
How it was run: as §1

MAPKAPK2 = MAPKAPK2 (Homo sapiens, UniProt P49137)
How it was run: as §1

HIPK4 = HIPK4 (Homo sapiens, UniProt Q8NE63)
How it was run: as §1

MST2 = target: T5, MST2 (Homo sapiens, UniProt Q13188)
T5 construct: gene STK3
How it was run: as §1

SIK2 = SIK2 (Homo sapiens, UniProt Q9H0K1)
How it was run: as §1

MYO3A = MYO3A (Homo sapiens, UniProt Q8NEV4)
How it was run: as §1

CDK3 = CDK3 (Homo sapiens, UniProt Q00526)
How it was run: as §1

TSSK1B = TSSK1B (Homo sapiens, UniProt Q9BXA7)
How it was run: as §1

DCAMKL1 = target: T6, DCAMKL1 (Homo sapiens, UniProt O15075)
T6 construct: gene DCLK1
How it was run: as §1

ASK1 = target: T7, ASK1 (Homo sapiens, UniProt Q99683)
T7 construct: gene MAP3K5
How it was run: as §1

PIP5K2C = target: T8, PIP5K2C (Homo sapiens, UniProt Q8TBX8)
T8 construct: gene PIP4K2C
How it was run: as §1

EPHA3 = EPHA3 (Homo sapiens, UniProt P29320)
How it was run: as §1

PLK2 = PLK2 (Homo sapiens, UniProt Q9NYY3)
How it was run: as §1

CAMK2D = CAMK2D (Homo sapiens, UniProt Q13557)
How it was run: as §1

Sequence of EPHA3 (P29320 whole entry): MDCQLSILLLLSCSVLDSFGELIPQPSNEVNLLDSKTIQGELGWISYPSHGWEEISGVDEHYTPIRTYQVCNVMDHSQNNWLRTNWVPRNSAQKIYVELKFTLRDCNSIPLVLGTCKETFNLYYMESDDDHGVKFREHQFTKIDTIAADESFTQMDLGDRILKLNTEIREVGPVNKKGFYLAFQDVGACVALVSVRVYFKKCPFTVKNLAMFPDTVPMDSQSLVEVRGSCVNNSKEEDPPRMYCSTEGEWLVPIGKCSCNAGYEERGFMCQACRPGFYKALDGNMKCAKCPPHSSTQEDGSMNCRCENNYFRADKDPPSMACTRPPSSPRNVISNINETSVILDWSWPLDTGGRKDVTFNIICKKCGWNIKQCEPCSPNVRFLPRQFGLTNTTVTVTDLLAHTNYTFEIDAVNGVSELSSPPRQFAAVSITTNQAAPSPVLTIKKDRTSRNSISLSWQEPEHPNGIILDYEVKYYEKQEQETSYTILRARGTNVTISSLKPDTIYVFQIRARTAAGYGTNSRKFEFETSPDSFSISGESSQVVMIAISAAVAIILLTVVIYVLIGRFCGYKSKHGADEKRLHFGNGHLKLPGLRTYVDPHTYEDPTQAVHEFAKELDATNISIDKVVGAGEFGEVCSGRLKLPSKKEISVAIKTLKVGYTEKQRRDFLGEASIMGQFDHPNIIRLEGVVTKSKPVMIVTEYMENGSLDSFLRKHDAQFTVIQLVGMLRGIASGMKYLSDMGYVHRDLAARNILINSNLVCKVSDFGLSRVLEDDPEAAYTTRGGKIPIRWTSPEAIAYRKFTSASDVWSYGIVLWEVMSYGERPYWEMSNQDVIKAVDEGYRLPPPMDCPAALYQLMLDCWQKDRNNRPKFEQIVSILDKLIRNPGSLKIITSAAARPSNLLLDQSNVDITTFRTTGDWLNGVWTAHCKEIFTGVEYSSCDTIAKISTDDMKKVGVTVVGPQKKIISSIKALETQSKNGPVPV
Sequence of MAPKAPK2 (P49137 whole entry): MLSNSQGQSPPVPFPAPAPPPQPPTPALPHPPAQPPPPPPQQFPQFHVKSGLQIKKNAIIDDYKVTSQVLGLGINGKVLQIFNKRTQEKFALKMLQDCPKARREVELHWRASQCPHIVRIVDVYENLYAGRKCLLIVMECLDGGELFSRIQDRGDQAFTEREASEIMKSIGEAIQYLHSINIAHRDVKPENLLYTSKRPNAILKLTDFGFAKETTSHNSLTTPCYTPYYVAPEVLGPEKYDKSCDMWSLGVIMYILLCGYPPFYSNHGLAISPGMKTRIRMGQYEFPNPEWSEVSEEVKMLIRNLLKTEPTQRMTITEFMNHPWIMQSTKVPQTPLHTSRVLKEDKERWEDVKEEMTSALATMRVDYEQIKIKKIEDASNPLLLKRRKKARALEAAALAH
Sequence of TLK2 (Q86UE8 whole entry): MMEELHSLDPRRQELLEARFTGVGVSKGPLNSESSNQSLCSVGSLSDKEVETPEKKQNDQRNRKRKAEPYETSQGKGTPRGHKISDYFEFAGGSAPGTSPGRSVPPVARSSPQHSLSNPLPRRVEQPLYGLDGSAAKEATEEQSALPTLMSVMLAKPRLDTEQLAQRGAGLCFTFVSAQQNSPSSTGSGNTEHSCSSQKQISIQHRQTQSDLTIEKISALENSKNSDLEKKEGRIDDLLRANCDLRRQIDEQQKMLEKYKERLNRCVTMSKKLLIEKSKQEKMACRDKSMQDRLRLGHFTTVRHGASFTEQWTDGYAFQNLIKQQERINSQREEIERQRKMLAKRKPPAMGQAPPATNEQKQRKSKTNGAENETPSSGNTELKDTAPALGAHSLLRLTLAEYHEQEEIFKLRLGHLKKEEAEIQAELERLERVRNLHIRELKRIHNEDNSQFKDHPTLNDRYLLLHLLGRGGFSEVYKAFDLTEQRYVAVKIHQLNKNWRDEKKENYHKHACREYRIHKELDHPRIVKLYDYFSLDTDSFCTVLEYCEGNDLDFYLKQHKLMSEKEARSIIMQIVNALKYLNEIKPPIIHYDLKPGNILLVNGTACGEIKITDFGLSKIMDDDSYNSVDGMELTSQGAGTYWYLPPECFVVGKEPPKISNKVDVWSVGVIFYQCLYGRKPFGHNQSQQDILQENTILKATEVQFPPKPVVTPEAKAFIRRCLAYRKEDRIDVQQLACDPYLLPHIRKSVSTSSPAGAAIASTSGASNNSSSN
T3 sequence (O43318 whole entry): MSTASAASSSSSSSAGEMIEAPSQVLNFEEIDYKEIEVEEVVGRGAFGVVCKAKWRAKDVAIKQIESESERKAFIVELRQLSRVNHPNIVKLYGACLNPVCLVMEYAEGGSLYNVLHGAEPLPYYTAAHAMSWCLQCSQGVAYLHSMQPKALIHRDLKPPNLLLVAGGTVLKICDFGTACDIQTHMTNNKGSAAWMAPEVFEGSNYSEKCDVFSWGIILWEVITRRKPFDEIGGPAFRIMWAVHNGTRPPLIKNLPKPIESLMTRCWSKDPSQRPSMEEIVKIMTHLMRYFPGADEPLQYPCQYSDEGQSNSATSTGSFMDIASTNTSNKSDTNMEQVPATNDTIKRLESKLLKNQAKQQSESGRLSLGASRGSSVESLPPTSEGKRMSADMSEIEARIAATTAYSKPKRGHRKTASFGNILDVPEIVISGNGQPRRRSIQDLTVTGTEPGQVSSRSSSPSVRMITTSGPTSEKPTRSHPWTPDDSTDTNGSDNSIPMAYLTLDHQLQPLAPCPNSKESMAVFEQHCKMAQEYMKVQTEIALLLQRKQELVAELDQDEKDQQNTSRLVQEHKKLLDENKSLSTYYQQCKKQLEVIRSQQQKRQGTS
Sequence of TSSK1B (Q9BXA7 whole entry): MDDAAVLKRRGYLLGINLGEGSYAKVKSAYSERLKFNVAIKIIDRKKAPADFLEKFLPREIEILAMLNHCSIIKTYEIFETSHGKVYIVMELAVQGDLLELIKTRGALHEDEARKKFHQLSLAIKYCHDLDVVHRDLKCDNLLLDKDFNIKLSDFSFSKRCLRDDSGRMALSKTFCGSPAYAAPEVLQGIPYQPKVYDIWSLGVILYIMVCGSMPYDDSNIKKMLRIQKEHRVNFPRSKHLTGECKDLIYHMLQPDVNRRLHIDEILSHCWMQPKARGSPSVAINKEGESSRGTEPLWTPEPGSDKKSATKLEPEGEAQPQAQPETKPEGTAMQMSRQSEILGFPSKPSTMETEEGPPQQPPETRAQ
Sequence of MYO3A (Q8NEV4 whole entry): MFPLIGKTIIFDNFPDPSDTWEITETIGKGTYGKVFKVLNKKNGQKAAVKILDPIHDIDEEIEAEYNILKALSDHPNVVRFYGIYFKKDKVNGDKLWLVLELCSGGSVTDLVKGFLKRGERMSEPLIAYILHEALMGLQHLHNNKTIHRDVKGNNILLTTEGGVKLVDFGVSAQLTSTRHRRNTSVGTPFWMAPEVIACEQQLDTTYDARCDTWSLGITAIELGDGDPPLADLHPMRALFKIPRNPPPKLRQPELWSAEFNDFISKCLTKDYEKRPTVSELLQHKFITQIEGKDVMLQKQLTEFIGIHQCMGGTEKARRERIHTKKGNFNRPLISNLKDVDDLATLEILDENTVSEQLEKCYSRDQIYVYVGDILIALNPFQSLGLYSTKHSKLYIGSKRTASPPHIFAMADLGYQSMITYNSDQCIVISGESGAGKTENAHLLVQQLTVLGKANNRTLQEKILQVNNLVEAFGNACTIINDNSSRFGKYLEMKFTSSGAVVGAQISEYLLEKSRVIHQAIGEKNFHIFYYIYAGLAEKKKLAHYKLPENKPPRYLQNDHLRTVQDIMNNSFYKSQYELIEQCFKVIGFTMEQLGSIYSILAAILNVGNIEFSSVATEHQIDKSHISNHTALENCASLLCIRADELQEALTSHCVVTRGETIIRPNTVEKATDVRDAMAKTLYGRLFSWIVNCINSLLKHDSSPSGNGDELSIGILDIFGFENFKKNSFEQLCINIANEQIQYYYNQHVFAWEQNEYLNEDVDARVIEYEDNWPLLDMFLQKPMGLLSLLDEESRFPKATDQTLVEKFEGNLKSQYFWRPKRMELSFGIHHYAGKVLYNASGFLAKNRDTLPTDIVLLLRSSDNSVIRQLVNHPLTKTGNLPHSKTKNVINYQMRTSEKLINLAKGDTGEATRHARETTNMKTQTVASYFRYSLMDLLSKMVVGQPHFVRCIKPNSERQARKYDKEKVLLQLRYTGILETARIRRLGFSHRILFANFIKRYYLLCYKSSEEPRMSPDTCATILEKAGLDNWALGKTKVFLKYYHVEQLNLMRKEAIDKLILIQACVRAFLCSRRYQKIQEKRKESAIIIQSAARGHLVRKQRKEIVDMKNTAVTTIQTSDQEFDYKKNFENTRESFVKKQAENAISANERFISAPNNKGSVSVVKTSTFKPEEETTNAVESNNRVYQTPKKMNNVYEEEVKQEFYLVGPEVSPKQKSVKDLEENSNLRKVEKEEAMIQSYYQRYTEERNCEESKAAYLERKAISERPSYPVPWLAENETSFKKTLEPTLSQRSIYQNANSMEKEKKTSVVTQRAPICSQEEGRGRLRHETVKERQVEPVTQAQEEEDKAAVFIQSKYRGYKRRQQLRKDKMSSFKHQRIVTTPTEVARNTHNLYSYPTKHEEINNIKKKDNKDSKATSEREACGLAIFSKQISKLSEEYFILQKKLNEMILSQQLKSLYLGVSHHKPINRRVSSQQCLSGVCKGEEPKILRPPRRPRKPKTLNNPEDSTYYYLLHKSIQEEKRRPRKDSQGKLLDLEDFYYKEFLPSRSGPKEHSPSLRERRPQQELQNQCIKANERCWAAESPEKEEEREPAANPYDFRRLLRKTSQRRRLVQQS
Sequence of CDK3 (Q00526 whole entry): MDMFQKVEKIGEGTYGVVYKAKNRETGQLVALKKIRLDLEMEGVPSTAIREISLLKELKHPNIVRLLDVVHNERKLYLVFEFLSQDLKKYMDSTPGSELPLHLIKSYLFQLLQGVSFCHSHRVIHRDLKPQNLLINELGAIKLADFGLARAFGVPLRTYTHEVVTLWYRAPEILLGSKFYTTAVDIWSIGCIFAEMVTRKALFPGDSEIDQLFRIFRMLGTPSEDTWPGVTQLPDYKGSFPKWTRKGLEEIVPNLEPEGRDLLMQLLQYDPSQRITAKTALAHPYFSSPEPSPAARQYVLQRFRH

remaining binding at 100 µM (TLK2): 94% | remaining binding at 100 µM (PCTK3): 85% | remaining binding at 100 µM [1]: 58% | remaining binding at 100 µM (TAK1): 79% | remaining binding at 100 µM (DYRK2): 93% | remaining binding at 100 µM (BRSK2): 79% | remaining binding at 100 µM [2]: 63% | remaining binding at 100 µM (NEK7): 74% | remaining binding at 100 µM (MAPKAPK2): 77% | remaining binding at 100 µM (HIPK4): 66% | remaining binding at 100 µM (MST2): 65% | remaining binding at 100 µM (SIK2): 76% | remaining binding at 100 µM (MYO3A): 95% | remaining binding at 100 µM (CDK3): 92% | remaining binding at 100 µM (TSSK1B): 95% | remaining binding at 100 µM (DCAMKL1): 85% | remaining binding at 100 µM (ASK1): 81% | remaining binding at 100 µM (PIP5K2C): 88% | remaining binding at 100 µM (EPHA3): 100% | remaining binding at 100 µM (PLK2): 68% | remaining binding at 100 µM (CAMK2D): 94%
Structure (SMILES): C=C(C)[C@H]1CC=C(C)C(=O)C1 [S-carvone]
